Assay results taken from patent publication US8211941B2, “Antagonists of the transient receptor potential vanilloid 1 and uses thereof” (The Board of Regents of the University of Texas System, priority 2007, dated 2012).

How the values were obtained:
[1] = system: vagal afferent nerves (TRPV1) in the stomach; assay: Nausea and vomiting induced by intravenous vasopressin infusion, behavioral emetic score; format: in vivo, dog; conditions: dogs, vasopressin 0.5 U/Kg iv over 20 minutes, one week after 250 ml of a 100 nM solution sprayed endoscopically; baseline 29.0±6.2; p=0.05
Description: (§1) Nausea and vomiting was induced using either balloon distention or intra-venous infusion of vasopressin (0.5 U/Kg infused over 20 minutes). Untreated represents control or baseline mean score of the emetic response was 26.3±4.0 and 29.0±6.2 for balloon distention and vasopressin stimuli respectively. Following, Resiniferatoxin infusion (250 ml of a 100 nM solution): the mean score with balloon distention was 11.7±4.2 (p=0.01) while the mean score with vasopressin was 16.3±5 (p=0.05).
(§2) Four dogs with surgically created jejunocutaneous fistulae 20 cm distal to the pylorus were used in this study. Nausea and vomiting were induced using two different stimuli, both of which are vagally dependent, at least in part: (1) Balloon inflation in the jejunum (2) Intravenous vasopressin infusion (0.5 U/Kg infused over 20 minutes). Nausea was assessed using a previously validated behavioral scoring system in addition to counting actual episodes of vomiting. After baseline observations, resiniferatoxin (250 ml of a 100 nM solution) was administered endoscopically using a spray catheter to coat the mucosal lining of the stomach under general anesthesia into the stomach. One week later, the response to balloon distention and vasopressin infusion was recorded again.

[2] = system: dogs; conditions: subcutaneous; cited from earlier work
[3] = system: vagal afferent nerves (TRPV1) in the stomach; assay: Nausea and vomiting induced by balloon inflation in the jejunum, behavioral emetic score; format: in vivo, dog; conditions: dogs, one week after 250 ml of a 100 nM solution sprayed endoscopically onto gastric mucosa; baseline 26.3±4.0; p=0.01
Description: as §1, §2

[4] = General observation of dogs after endoscopic resiniferatoxin spray; format: in vivo, dog; conditions: after endoscopic gastric spray of 250 ml of a 100 nM solution
Description: as §2

[5] = system: ferrets; conditions: subcutaneous; cited from earlier work
[6] = system: Suncus murinus; conditions: subcutaneous; cited from earlier work
[7] = system: ferrets; conditions: subcutaneous; cited from earlier work; remark: listed apart in the source

## C=C(C)[C@]12C[C@@H](C)[C@@]34O[C@](Cc5ccccc5)(O[C@@H]1[C@@H]3C=C(COC(=O)Cc1ccc(O)c(OC)c1)C[C@]1(O)C(=O)C(C)=C[C@@H]41)O2 [Resiniferatoxin]
[1]
  mean score of the emetic response with vasopressin: 16.3±5
[2]
  effect on acute and delayed cisplatin and apomorphine induced emesis: inhibited
[3]
  mean score of the emetic response with balloon distention: 11.7±4.2
[4]
  body weight change: minor weight loss
  general health of dogs: appeared healthy
[5]
  effect on copper sulphate, whole body radiation and Loperamide induced emetic response: blocked
[6]
  emetic / anti-emetic properties: initial emetic followed by anti-emetic properties
[7]
  effect on acute and delayed cisplatin and apomorphine induced emesis: inhibited
